US20060058312A1, “Stabilized aqueous preparation for injection” (priority 2004, published 2006)

Key:
[1] = Stability test at 60° C., effect of pH value with addition of ascorbic acid (Example 2), HPLC content; assay type: physicochemical
Method: (§1) For the aqueous preparations obtained in (1) to (3) above, tests evaluating stability at 60° C./3 weeks were performed. The calcium levofolinate content remaining in the aqueous solution was measured using high performance liquid chromatography under the following conditions (the same were employed in the following experiments) 2 ml each of the test preparations were weighed, and 10 ml of the internal standard solution described below (the same was employed in the following experiments) were added thereto. Subsequently, water was added to adjust the total volume of the solution to 50 ml, thereby to prepare a test solution. Meanwhile, 62.5 mg of calcium levofolinate were dissolved in water so as to prepare a 25 ml solution. Then, to 10 ml of the resultant solution were added 10 ml of the internal standard solution, and the total volume of the solution was adjusted to 50 ml by adding water, thereby to prepare a standard solution. For 20 μl of the standard solution and the test solution, the content of calcium levofolinate was measured by the liquid chromatography method under the following conditions.
(§2) 1) Measurement Conditions • Detector: Ultraviolet absorptiometer (Measurement wavelength: 254 nm) • Column: A stainless tube having an internal diameter of 4.0 mm and a length of 15 cm was filled with 5 μm of octadecylsilylated silica gel for liquid chromatography. • Column temperature: A constant temperature near 45° C. • Mobile phase: The pH value of a mixed test solution containing 0.008 mol/L of disodium hydrogen phosphate solution/methanol/40% aqueous tetrabutylammonium hydroxide solution (385:110:1.3 (volume ratio)) was adjusted to 7.5 by adding phosphoric acid. • Flow rate: The flow rate was regulated so that the retention time of calcium levofolinate became about 10 minutes. • Internal standard solution: A solution prepared by adding water to 0.04 g of methyl parahydroxybenzoate so that the whole amount of solution is 100 ml.
About 80 ml of water for injection were added to a beaker (volume: 200 ml). Then 0.56 g of sodium chloride, 0.3 g of tromethamine, and 0.5 g of ascorbic acid were added to it with bubbling of nitrogen gas, and the components were dissolved with stirring. Subsequently, to the resultant solution were added 1.375 g of calcium levofolinate (1.1 g, in terms of 5-formyl-(6S)-tetrahydrofolic acid), and the components were dissolved with stirring under heating to 45 to 50° C. Thereafter, the pH value of the solution was adjusted to 5.0 by adding 5% hydrochloric acid solution dropwise. A similar procedure to the above, except using 1% aqueous sodium hydroxide solution in place of 5% hydrochloric acid solution, was performed to produce solutions, each having a regulated pH value of 6.0, 7.0, 8.0, or 9.0. Water for injection was further added to each solution to adjust the total volume of the solution to 100 ml. Subsequently, the bubbling of nitrogen gas was stopped, and each solution was filtered with a filtration filter, thereby to yield a solution for injection. Subsequently, each of five 5 ml-glass ampules the inside space of which had been substituted by nitrogen gas, was filled with 5 ml of the resultant solution for injection, and was sealed by heating.
For each aqueous preparation obtained as above, a stability test at 60° C. was performed by measuring the remaining calcium levofolinate content by the high performance liquid chromatography method.

[2] = Stability test at 60° C., addition amount of ascorbic acid at pH 8.7 (Example 5), HPLC content; assay type: physicochemical; conditions: for remaining calcium levofolinate content compared with the initial value (100): 60° C.
Method: as §1, §2
About 80 ml of water for injection were added to a beaker (volume: 200 ml). Then, 0.56 g of sodium chloride, 0.3 g of tromethamine, and 1.375 g of calcium levofolinate (1.1 g, in terms of 5-formyl-(6S)-tetrahydrofolic acid) were added to it with bubbling of nitrogen gas, and the components were dissolved with stirring (this procedure was performed 5 times). Subsequently, 0.05 g, 0.075 g, 0.1 g, 0.2 g, or 0.3 g of ascorbic acid was added to each solution, and was dissolved with stirring, to prepare five solutions. Thereafter, in the case where the addition amount of ascorbic acid is 0.05 g, 0.075 g, or 0.1 g, the pH value of each solution was regulated to 8.7 by adding 5% hydrochloric acid. In the case where the addition amount of ascorbic acid is 0.2 g, or 0.3 g, the pH value of each solution was regulated to 8.7 by adding 1% aqueous sodium hydroxide solution dropwise. Water for injection was further added to each solution to adjust the total volume of the solution to 100 ml. Subsequently, the bubbling of nitrogen gas was stopped, and each solution was filtered with a filtration filter, thereby to yield a solution for injection. Subsequently, each of five 5 ml-glass ampules the inside space of which had been substituted by nitrogen gas, was filled with 5 ml of the resultant solution for injection, and was sealed by heating.
For each aqueous preparation obtained as above, a test evaluating stability at 60° C. was performed by measuring the remaining calcium levofolinate content by the high performance liquid chromatography method.

SMILES: Nc1nc(=O)c2c([nH]1)NC[C@H](CNc1ccc(C(=O)N[C@@H](CCC(=O)O)C(=O)O)cc1)N2C=O [calcium levofolinate, (6S)-N-[4-[[(2-amino-5-formyl-1,4,5,6,7,8-hexahydro-4-oxo-6-pteridinyl)methyl]amino]benzoyl]-L-glutamic acid]
- remaining calcium levofolinate content compared with the initial value (100) ([1]; pH value 5.0, 60° C., 1 week): 91.5
- remaining calcium levofolinate content compared with the initial value (100) ([1]; pH value 5.0, 60° C., 2 weeks): 87.5
- remaining calcium levofolinate content compared with the initial value (100) ([1]; pH value 5.0, 60° C., 3 weeks): 86.0
- calcium levofolinate content, Initial value (100) ([1]; pH value 5.0, Initial value): 100
- remaining calcium levofolinate content compared with the initial value (100) ([1]; pH value 6.0, 60° C., 1 week): 95.8
- remaining calcium levofolinate content compared with the initial value (100) ([1]; pH value 6.0, 60° C., 2 weeks): 94.1
- remaining calcium levofolinate content compared with the initial value (100) ([1]; pH value 6.0, 60° C., 3 weeks): 92.8
- calcium levofolinate content, Initial value (100) ([1]; pH value 6.0, Initial value): 100
- remaining calcium levofolinate content compared with the initial value (100) ([1]; pH value 7.0, 60° C., 1 week): 96.3
- remaining calcium levofolinate content compared with the initial value (100) ([1]; pH value 7.0, 60° C., 2 weeks): 93.4
- remaining calcium levofolinate content compared with the initial value (100) ([1]; pH value 7.0, 60° C., 3 weeks): 92.5
- calcium levofolinate content, Initial value (100) ([1]; pH value 7.0, Initial value): 100
- remaining calcium levofolinate content compared with the initial value (100) ([1]; pH value 8.0, 60° C., 1 week): 94.4
- remaining calcium levofolinate content compared with the initial value (100) ([1]; pH value 8.0, 60° C., 2 weeks): 89.2
- remaining calcium levofolinate content compared with the initial value (100) ([1]; pH value 8.0, 60° C., 3 weeks): 87.0
- calcium levofolinate content, Initial value (100) ([1]; pH value 8.0, Initial value): 100
- remaining calcium levofolinate content compared with the initial value (100) ([1]; pH value 9.0, 60° C., 1 week): 95.7
- remaining calcium levofolinate content compared with the initial value (100) ([1]; pH value 9.0, 60° C., 2 weeks): 89.7
- remaining calcium levofolinate content compared with the initial value (100) ([1]; pH value 9.0, 60° C., 3 weeks): 85.3
- calcium levofolinate content, Initial value (100) ([1]; pH value 9.0, Initial value): 100
- remaining calcium levofolinate content compared with the initial value (100) ([2]; ascorbic acid 0.05%, 1 month): 84.5
- remaining calcium levofolinate content compared with the initial value (100) ([2]; ascorbic acid 0.05%, 1 week): 97.0
- remaining calcium levofolinate content compared with the initial value (100) ([2]; ascorbic acid 0.05%, 2 weeks): 92.1
- remaining calcium levofolinate content compared with the initial value (100) ([2]; ascorbic acid 0.05%, 3 weeks): 90.3
- calcium levofolinate content, Initial value (100) ([2]; ascorbic acid 0.05%): 100
- remaining calcium levofolinate content compared with the initial value (100) ([2]; ascorbic acid 0.075%, 1 month): 85.7
- remaining calcium levofolinate content compared with the initial value (100) ([2]; ascorbic acid 0.075%, 1 week): 97.1
- remaining calcium levofolinate content compared with the initial value (100) ([2]; ascorbic acid 0.075%, 2 weeks): 91.5
- remaining calcium levofolinate content compared with the initial value (100) ([2]; ascorbic acid 0.075%, 3 weeks): 90.9
- calcium levofolinate content, Initial value (100) ([2]; ascorbic acid 0.075%): 100
- remaining calcium levofolinate content compared with the initial value (100) ([2]; ascorbic acid 0.1%, 1 month): 84.9
- remaining calcium levofolinate content compared with the initial value (100) ([2]; ascorbic acid 0.1%, 1 week): 97.3
- remaining calcium levofolinate content compared with the initial value (100) ([2]; ascorbic acid 0.1%, 2 weeks): 92.2
- remaining calcium levofolinate content compared with the initial value (100) ([2]; ascorbic acid 0.1%, 3 weeks): 89.3
- calcium levofolinate content, Initial value (100) ([2]; ascorbic acid 0.1%): 100
- remaining calcium levofolinate content compared with the initial value (100) ([2]; ascorbic acid 0.2%, 1 month): 83.4
- remaining calcium levofolinate content compared with the initial value (100) ([2]; ascorbic acid 0.2%, 1 week): 96.6
- remaining calcium levofolinate content compared with the initial value (100) ([2]; ascorbic acid 0.2%, 2 weeks): 91.5
- remaining calcium levofolinate content compared with the initial value (100) ([2]; ascorbic acid 0.2%, 3 weeks): 88.6
- calcium levofolinate content, Initial value (100) ([2]; ascorbic acid 0.2%): 100
- remaining calcium levofolinate content compared with the initial value (100) ([2]; ascorbic acid 0.3%, 1 month): 82.0
- remaining calcium levofolinate content compared with the initial value (100) ([2]; ascorbic acid 0.3%, 1 week): 96.1
- remaining calcium levofolinate content compared with the initial value (100) ([2]; ascorbic acid 0.3%, 2 weeks): 90.5
- remaining calcium levofolinate content compared with the initial value (100) ([2]; ascorbic acid 0.3%, 3 weeks): 87.7
- calcium levofolinate content, Initial value (100) ([2]; ascorbic acid 0.3%): 100
